In one series the test system is spleen T cells. The series can be described thus: T cell proliferation inhibition (CFSE, FACS), CD3/CD28-activated spleen T cells. The format is cell-based, C57BL/6 mice. Particulars: for inhibition at 10 µM / inhibition at 30 µM / inhibition at 50 µM: Mus musculus, T-cell, read-out: Proliferation inhibition rate (%). As for the experimental part:
To investigate whether the compounds obtained in the Preparation Example have an inhibitory effect on T cell proliferation, the T cell proliferation was determined ex vivo using the fluorescent dye carboxyfluorescein diacetate succinimidyl ester (CFSE), which binds to intracellular molecules by covalent bonds.
Spleens were harvested and minced from C57BL/6 mice at 7 weeks of age, and then single cells were isolated using a strainer (40 μm pore size, SPL). Red blood cells were removed using ACK (Ammonium-Chloride-Potassium) lysis buffer to isolate only leukocytes. Subsequently, CD90.2 microbeads (130-121-278, Miltenyi Biotech.) were added, and subjected to react at 4° C. for 20 minutes. After that, spleen T cells were isolated using a MACS Magnetic Stand and LS column. The isolated T cells from the spleen were resuspended in 1 mL of Free media (RPMI-1640+200 U/mL penicillin+200 μg/mL streptomycin), followed by the addition of 0.3 μL of CFSE (10 mM), and reacted at 37° C. for 5 minutes. Subsequently, 10 mL of Free media was added to stop the reaction, and the cells were centrifuged to obtain the cell pellet. RPMI 1640 medium containing 10% FBS, 100 U/mL penicillin, and 100 μg/mL streptomycin was added to suspend the cells, and 2×10^5 cells per well were seeded into a 96-well plate and T cells were activated by treatment with CD3 and CD28 antibodies (each at 0.5 μg/mL).
The compound diluted in DMSO was treated in triplicate at concentrations of 10 μM, 30 μM, and 50 μM, respectively. After incubation at 37° C. with 5% CO2 for 3 days, cell proliferation levels were determined using a FACS Canto machine.
In the FACS graph of FIG. 1, the y-axis represents the quantity (number) of cells, while the x-axis represents the fluorescence level of the cells. […] This reduction in CFSE fluorescence results in a leftward shift along the x-axis in the graph. This indicates cell proliferation.
To collectively indicate the proliferation inhibition rate for the experimental results, the relative value of the proliferation amount after compound administration to the proliferation amount after CD3/CD28+DMSO administration was calculated. Subsequently, it was converted into an inhibition amount and expressed as a percentage, thereby determining the proliferation inhibition rate. Specifically, the proliferation inhibition rate was calculated as follows: […]

For series [1], the system named is T lymphocyte cell line Jurkat E6-1. As to the kind of experiment: Cytotoxicity experiment (CCK-8, relative cell survival). Type of series: cell-based. Particulars: 24 hours, untreated cells = 100%. As for the experimental part:
To evaluate the cytotoxicity of the compound according to the present invention, the following experiment was conducted.
The T lymphocyte cell line Jurkat E6-1, purchased from the Korean Cell Line Bank, was cultured in RPMI-1640 medium comprising 10% FBS, 100 U/mL penicillin, and 100 μg/mL streptomycin. After culturing, the cells were harvested and centrifuged at 1,300 rpm for 5 minutes. After removal of the supernatant, the cells were resuspended in the same medium at a concentration of approximately 2.2×10^5 cells/mL, and 90 μL of the cell suspension was distributed per well into a 96-well plate (Costar 96 well cell culture plate, Corning). After treating 10 μL of each compound at different concentrations onto the respective wells of the plate, it was cultured for 24 hours at 37° C. in a 5% CO2 incubator. Subsequently, 10 μL of CCK-8 was added to each well, and it was cultured again for 2 hours at 37° C. in a 5% CO2 incubator. Absorbance was then measured at 450 nm to determine the relative cell survival rate compared to untreated cells, as shown in Table 4.
The values listed in Table 4 represent the relative cell survival rates in the groups treated with each compound at different concentrations, with the cell survival rate of untreated cells set as 100%.

Setting [2] is: 72 h, Table 2, 3 days, relative to CD3/CD28+DMSO.
Setting [3] is: Table 3 (compounds not belonging to Formula 1).

Structures are written as SMILES. Like-named read-outs stand apart in the source and are kept apart here.

Take `CCCCCCCCNCCCNC(=O)c1nccnc1Cl` [Compound 82]: the inhibition at 10 µM in the series on spleen T cells (setting [2]) amounted to 60%. Besides, the inhibition at 30 µM with spleen T cells (setting [2]) came out at 80%. For the same compound, the inhibition at 50 µM in the series with spleen T cells (setting [2]) is 85%. Moreover, the “Relative cell survival rate (%)” value in series [1] (10 μM) is reported as 95%; in series [1] (20 μM), 90%; in series [1] (30 μM), 97%; in series [1] (50 μM), 88%.
Turning to `CCCCCCCCCCCCNC(=O)c1ccccc1C(=O)O` [Compound 37], the inhibition at 10 µM in the series on spleen T cells (setting [2]) amounted to 23%. Moreover, the inhibition at 30 µM in the series with spleen T cells (setting [2]) amounted to 55%. Further, in the series with spleen T cells (setting [2]), the inhibition at 50 µM is 65%. The “Relative cell survival rate (%)” value in series [1] (10 μM) is 90%; in series [1] (20 μM), 90%; in series [1] (30 μM), 90%; in series [1] (50 μM), 92%.
On to `CCCCCCCCCCCCNC(=O)c1ncccc1Br` [Compound 73], for which the inhibition at 10 µM with spleen T cells (setting [2]) was found to be 32%. Besides, in the series with spleen T cells (setting [2]), the inhibition at 30 µM was found to be 76%. In the series with spleen T cells (setting [2]), the inhibition at 50 µM was determined as 86%. For the same compound, the “Relative cell survival rate (%)” value in series [1] (10 μM) came out at 94%; in series [1] (20 μM), 97%; in series [1] (30 μM), 98%; in series [1] (50 μM) it was 104%.
Turning to `CCCCCCCCCCCCNC(=O)c1ccccc1-n1cccc1` [Compound 84], the inhibition at 10 µM in the series on spleen T cells (setting [2]) is 89%. Moreover, in the series with spleen T cells (setting [2]), the inhibition at 30 µM amounted to 96%. Besides, the inhibition at 50 µM in the series on spleen T cells (setting [2]) amounted to 100%. Also, the “cell proliferation read by FACS (FIG. 2)” value with spleen T cells (concentrations ranging from 10 to 30 μM) is “inhibition of cell proliferation”. In addition, the “Relative cell survival rate (%)” value was 96% in series [1] (10 μM), 94% in series [1] (20 μM), 96% in series [1] (30 μM) and 94% in series [1] (50 μM).
`CCCCCCCCCCCCNS(=O)(=O)c1c(F)cccc1F` [Compound 54]: the inhibition at 10 µM in the series with spleen T cells (setting [2]) was 55%. For the same compound, the inhibition at 30 µM in the series on spleen T cells (setting [2]) stood at 60%. Also, the inhibition at 50 µM in the series on spleen T cells (setting [2]) turned out to be 77%. Also, the “Relative cell survival rate (%)” value in series [1] (10 μM) was found to be 89%; in series [1] (20 μM), 83%; in series [1] (30 μM), 77%; in series [1] (50 μM), 76%.
`CCCCCCCCCCCCNC(=O)c1ccccc1C(=O)NC1CCCCC1` [Compound 53]: the inhibition at 10 µM with spleen T cells (setting [2]) is 22%. Besides, the inhibition at 30 µM in the series with spleen T cells (setting [2]) was determined as 65%. In the series with spleen T cells (setting [2]), the inhibition at 50 µM worked out at 85%. The “Relative cell survival rate (%)” value in series [1] (10 μM) is reported as 96%; in series [1] (20 μM), 97%; in series [1] (30 μM), 98%; in series [1] (50 μM), 95%.
For `CCCCCCCCCCCCNC(=O)c1c(F)cccc1[N+](=O)[O-]` [Compound 64], the inhibition at 10 µM in the series on spleen T cells (setting [2]) was determined as 79%. Moreover, the inhibition at 30 µM in the series on spleen T cells (setting [2]) was 100%. Besides, in the series with spleen T cells (setting [2]), the inhibition at 50 µM is 100%. The “Relative cell survival rate (%)” value in series [1] (10 μM) worked out at 91%; in series [1] (20 μM), 87%; in series [1] (30 μM), 87%; in series [1] (50 μM) it was 87%.
For the compound `CCCCCCCCCCCCNC(=O)c1ccccc1-c1ncc[nH]1` [Compound 52], the inhibition at 10 µM with spleen T cells (setting [2]) was 42%. Also, the inhibition at 30 µM with spleen T cells (setting [2]) came out at 95%. Further, the inhibition at 50 µM in the series on spleen T cells (setting [2]) was 100%. Further, the “Relative cell survival rate (%)” value in series [1] (10 μM) came out at 88%; in series [1] (20 μM) it was 85%; in series [1] (30 μM), 84%; in series [1] (50 μM), 84%.
Turning to `CCCCCCCCCCCCNC(=O)c1ccccc1Nc1cccc(C)c1C` [Compound 51], in the series on spleen T cells (setting [2]), the inhibition at 10 µM came to 100%. Further, the inhibition at 30 µM in the series on spleen T cells (setting [2]) turned out to be 100%. The inhibition at 50 µM with spleen T cells (setting [2]) stood at 100%. Further, the “Relative cell survival rate (%)” value in series [1] (10 μM) turned out to be 99%; in series [1] (20 μM), 94%; in series [1] (30 μM) it was 92%; in series [1] (50 μM), 90%.
Turning to `CCCCCCCCCCCCNC(=O)c1ccccc1C(=O)c1ccc(Cl)cc1` [Compound 16], the inhibition at 10 µM in the series with spleen T cells (setting [2]) was determined as 0%. In addition, the inhibition at 30 µM in the series on spleen T cells (setting [2]) was 100%. For the same compound, the inhibition at 50 µM in the series on spleen T cells (setting [2]) amounted to 100%. In addition, the “Relative cell survival rate (%)” value in series [1] (10 μM) is 121%; in series [1] (20 μM), 101%; in series [1] (30 μM) it was 92%; in series [1] (50 μM), 85%.
Take `CCCCCCCCCCCCNC(=O)c1cccnc1Cl` [Compound 13]: the inhibition at 10 µM in the series on spleen T cells (setting [2]) is 10%. Moreover, the inhibition at 30 µM in the series with spleen T cells (setting [2]) came to 48%. The inhibition at 50 µM in the series on spleen T cells (setting [2]) is 100%. The “Relative cell survival rate (%)” value in series [1] (10 μM) stood at 95%; in series [1] (20 μM) it was 71%; in series [1] (30 μM), 70%; in series [1] (50 μM), 57%.
As for `CCCCCCCCCCCCNC(=O)c1c(Cl)cccc1Cl` [Compound 39], the inhibition at 10 µM in the series on spleen T cells (setting [2]) was 7%. Also, the inhibition at 30 µM in the series with spleen T cells (setting [2]) is 61%. For the same compound, the inhibition at 50 µM with spleen T cells (setting [2]) turned out to be 89%. In addition, the “Relative cell survival rate (%)” value in series [1] (10 μM) came to 89%; in series [1] (20 μM) it was 102%; in series [1] (30 μM), 78%; in series [1] (50 μM), 79%.
For `CCCCNC(=O)c1ccccc1F` [Compound 81], the inhibition at 10 µM in the series on spleen T cells (setting [3]) was found to be 0%. Further, the inhibition at 30 µM in the series on spleen T cells (setting [3]) amounted to 2%. Further, in the series with spleen T cells (setting [3]), the inhibition at 50 µM was determined as 22%. The “Relative cell survival rate (%)” value in series [1] (10 μM) is on record as 103%; in series [1] (20 μM), 105%; in series [1] (30 μM), 107%; in series [1] (50 μM), 108%.
As for `CCCCCCCCCNC(=O)/C=C/c1ccccc1Br` [Compound 10], the inhibition at 10 µM in the series on spleen T cells (setting [2]) is 15%; in the series on spleen T cells (setting [3]) it was 5%. Further, the inhibition at 30 µM with spleen T cells (setting [2]) was 72%; in the series on spleen T cells (setting [3]), 9%. In addition, the inhibition at 50 µM in the series with spleen T cells (setting [2]) is 92%; in the series on spleen T cells (setting [3]) it was 3%. In addition, the “Relative cell survival rate (%)” value in series [1] (10 μM) is given as 91%; in series [1] (20 μM), 88%; in series [1] (30 μM), 85%; in series [1] (50 μM) it was 83%.
As for `CCCCCCCCCCCCNC(=O)c1cccnc1Nc1cccc(C(F)(F)F)c1` [Compound 33], the inhibition at 10 µM with spleen T cells (setting [2]) amounted to 33%. The inhibition at 30 µM in the series on spleen T cells (setting [2]) was found to be 100%. Further, in the series on spleen T cells (setting [2]), the inhibition at 50 µM was 100%. Besides, the “Relative cell survival rate (%)” value in series [1] (10 μM) turned out to be 100%; in series [1] (20 μM) it was 91%; in series [1] (30 μM), 79%; in series [1] (50 μM), 70%.
For the compound `CCCCCCCCCCCCNC(=O)c1c(Cl)ccnc1Cl` [Compound 30], the inhibition at 10 µM in the series with spleen T cells (setting [2]) turned out to be 16%. The inhibition at 30 µM with spleen T cells (setting [2]) was found to be 41%. In addition, the inhibition at 50 µM in the series on spleen T cells (setting [2]) amounted to 55%. Further, the “Relative cell survival rate (%)” value in series [1] (10 μM) is 120%; in series [1] (20 μM), 109%; in series [1] (30 μM) it was 108%; in series [1] (50 μM) it was 106%.
As for `CCCCCCCCCCCCNC(=O)c1cccc(Cl)c1N` [Compound 29], the inhibition at 10 µM in the series on spleen T cells (setting [2]) turned out to be 5%. Besides, in the series on spleen T cells (setting [2]), the inhibition at 30 µM was determined as 33%. The inhibition at 50 µM in the series with spleen T cells (setting [2]) came out at 65%. Also, the “Relative cell survival rate (%)” value is listed as 107% in series [1] (10 μM), 80% in series [1] (20 μM), 77% in series [1] (30 μM) and 60% in series [1] (50 μM).

The values above are taken from patent publication US20250296909A1, “NOVEL BENZENE DERIVATIVE AND IMMUNOSUPPRESSION-RELATED USE THEREOF” (PROVIBIO CO., LTD., priority 2021, published 2025).
